Reference: patent publication US20240180880A1, “METHODS OF USING EHMT2 INHIBITORS IN TREATING OR PREVENTING BLOOD DISORDERS” (Epizyme, Inc., priority 2017, published 2024)

Legend:
[1] = tested on: Human CD34+ progenitor cells; assay: Human CD34+ progenitors assay for fetal hemoglobin induction, % HbF+ cells by FACS (healthy donors); type: cell-based; settings: for Observed Induction of % HbF + Human Erythroid Progenitors: evaluated in the context of cell viability; for % HbF+ cells: 26% basal level
Description: An in-vitro system to test the ability of compound to induce fetal hemoglobin expression was developed. This system used Human CD34+ progenitor cells freshly isolated from healthy donors blood collections. Peripheral blood mononuclear cells (PBMCs) were isolated from whole blood by density gradient centrifugation using SepMatem-50 and Lymphoprep™ from Stem Cell Technologies. CD34^+ hematopoietic progenitor cells (HSPCs) were isolated from PBMCs by magnetic separation using Stem Cells Technologies CD34+ positive selection/isolation kit (Stem Cell Technologies, #18056). CD34 cells were cultured using a 2-phase 14 day culture system. During phase 1 (day 0 to day 7) cells were expanded. Expansion was followed by phase 2 (day 7 to day 14) where cells were differentiated toward the erythroid lineage. Compounds were added on day 1 and day 7 as 1000× stock after being diluted in dimethyl sulfoxide (DMSO) in a 3-fold series. Final DMSO concentration in the assay was 0.1%. At day 14 cells were harvested for Fluorescent Activated Cell Sorting (FACS) analysis and for HbF quantitation by Mass spectrometry. For cell surface and intracellular marker analysis by FACS, cells were fixed and stained with a cocktail of antibodies covering erythroid lineage markers, HbF and H3 and H3K9me2 (Table 11). Data was collected using Canto II flow cytometer (BD Biosciences) and the FACSDiva software. Data was analyzed using FlowJo software. % HbF^+ cells and ratios H3/H3K9me2 intensities were calculated for CD71^+/CD235a^+ gated populations.
A list of pharmacological agents was evaluated for their potential to induce fetal Hemoglobin (HbF) in order to identify combination partners for our EHMT1/2 inhibitors. HbF can be induced by toxicity; therefore, the potential of the agents to induce HbF were evaluated in the context of cell viability. (Table 12). The EHMT1/2 inhibitor Compound 205 was evaluated in combination with a fixed dose of 10 μM Hydroxyurea and 0.1 μM Pomalidomide. […] 10 μM Hydroxyurea as a single agent was able to induce 01% HbF^+ cells from 26% basal level to 45% while 0.016 μM compound 205 as a single agent induced to 45%. In combination these two agents were able to induced % HbF^+ to 63% (FIG. 3A). […] 0.1 μM Pomalidomide as a single agent was able to induce ° % HbF cells from 26% basal level to 48% while 0.016 μM compound 205 as a single agent induced to 45%. In combination these two agents were able to induce % HbF^+ to 78% (FIG. 3B).
Hydroxyurea was also evaluated as single agent and in combination with the EHMT1/2 inhibitor compound 205 in a matrix format using CD34^+ cells isolated from a pool of 5 healthy donors. […] (FIG. 4 and FIG. 5, respectively). It is noted that for Loewe excess determination in Chalice, data was normalized to the highest and lowest Hbγ induction observed under the conditions and dose ranges in the assay.

[2] = tested on: human CD34+ progenitor cells isolated from SCD donors; assay: HbF pan-cellular induction by FACS in human CD34+ progenitor cells isolated from SCD donors; type: cell-based

SMILES	Observed Induction of % HbF + Human Erythroid Progenitors [1]	also measured
Nc1ccccc1NC(=O)c1cnccn1 [BG-45]	Yes	
NC(CO)C(=O)NNCc1ccc(O)c(O)c1O (stereo not shown) [Benzerazide]	Very small	
CNc1cc(C)nc(Nc2ccc(OC)c(OC[C@H](O)CN3CCC3)c2)n1 [Compound D5R]		Fluorescence Intensity at which most of the positive cells are concentrated ([2]; 0.012 μM Compound D5R): ~10(3); % of HbF expressing cells ([2]; 0.012 μM Compound D5R, DMSO baseline 42.7%): 98.1%; % of HbF expressing cells ([2]; 10 μM Hydroxyurea in combination with 0.012 μM Compound D5R, DMSO baseline 42.7%): 99.8%; % HbF+ cells ([2]; Compound D5R dose response range (FIG. 6 ii-vi), DMSO baseline 42.7%): > 98%
Clc1ccc2c(c1)CCc1cccnc1C2=C1CCNCC1 [Desloratidine, desloratidine]	No	
Nc1ccccc1NC(=O)c1ccc(CNC(=O)OCc2cccnc2)cc1 [Entinostat, entinostat]	Yes	
NC(=O)NO [Hydroxyurea, hydroxyurea, reference compound]	Yes	Fluorescence Intensity at which most of the positive cells are concentrated ([2]; 10 μM Hydroxyurea): ~10(4); % of HbF expressing cells ([2]; 10 μM Hydroxyurea, DMSO baseline 42.7%): 78.1%; % HbF+ cells ([1]; 10 μM Hydroxyurea as a single agent): 45%
CN(C)C(=N)N=C(N)N [Metformin]	Yes	
Nc1cccc2c1C(=O)N(C1CCC(=O)NC1=O)C2=O (stereo not shown) [Pomalidomide, pomalidomide]	Yes	% HbF+ cells ([1]; 0.1 μM Pomalidomide as a single agent): 48%
O=C(CCCCCCC(=O)Nc1ccccc1)NO [Vorinostat, vorinostat]	No	
